One test addresses full-length human RORγt (Homo sapiens (Human), UniProt P51449). The test can be described thus: RORγt (full-length human) reporter assay, Conditions B or C. The format is cell-based. The settings on record: for inhibition at 3 µM: at 3 μM compound concentration, read-out: RORγt (FL) Reporter Assay B or C, % inhibition; for RORγt (FL) Reporter Assay B or C, % inhibition (value marked *): marked *: footnote not given; for inhibition at 6 µM: read-out: RORγt (FL) Reporter Assay B or C, % inhibition @ 6 μM, Conditions B or C; for RORγt (FL) Reporter Assay B or C, % inhibition (value marked ***): marked ***: footnote not given. The procedure, abridged:
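HEK293T cells transiently co-transfected with GAL4-DBD–full-length human RORγt (nt 142-1635, NM_001001523.1) plus GAL4-firefly and CMV-Renilla luciferase reporters; compounds added 4-6 h post-transfection for 16-20 h in 1.3% FBS, 0.1% DMSO. Firefly signal normalized to DMSO and saturating reference compound, then to Renilla; IC50 from concentration plots.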

Test [1] addresses human RORγt ligand binding domain (RORγt LBD) (Homo sapiens (Human), UniProt P51449). The test can be described thus: RORγt ThermoFluor® assay (thermal shift binding). Summed up:
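His-tagged human RORγt LBD (0.065 mg/mL) with 60 μM 1,8-ANS in 100 mM Hepes pH 7.0, 10 mM NaCl, 2.5 mM GSH, 0.002% Tween-20 was heated at 1 °C/min.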
On the technique in general: In DSF a fluorescence change marks the thermal transition of the protein.

Setting [2] is: read-out: RORγt (FL) Reporter Assay B or C, IC50.
Where [3] appears, read: read-out: ThermoFluor® Assay, Kd.
[4] abbreviates: RORγt (FL) Reporter Assay B or C, IC50 (μM), Conditions B or C.
Where [5] appears, read: Conditions B or C, read-out: RORγt (FL) Reporter Assay B or C, IC50.

Read-outs that look alike come from different tables or passages of the source.

Sequence of full-length human RORγt (P51449 other isoform, or with tags, fused parts or gaps): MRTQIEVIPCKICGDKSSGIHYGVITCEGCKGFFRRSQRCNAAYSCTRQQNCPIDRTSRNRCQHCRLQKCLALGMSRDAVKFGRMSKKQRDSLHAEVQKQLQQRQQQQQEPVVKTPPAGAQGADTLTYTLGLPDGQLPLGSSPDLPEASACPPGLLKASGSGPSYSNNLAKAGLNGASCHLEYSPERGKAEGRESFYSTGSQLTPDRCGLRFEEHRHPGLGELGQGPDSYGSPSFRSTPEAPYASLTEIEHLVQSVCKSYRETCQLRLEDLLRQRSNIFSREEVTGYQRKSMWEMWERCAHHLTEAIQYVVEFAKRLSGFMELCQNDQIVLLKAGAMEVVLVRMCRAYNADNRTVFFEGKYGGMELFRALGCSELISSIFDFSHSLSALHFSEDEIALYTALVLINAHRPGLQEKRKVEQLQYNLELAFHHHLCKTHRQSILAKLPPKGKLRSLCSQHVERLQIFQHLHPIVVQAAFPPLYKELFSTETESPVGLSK
Sequence of human RORγt ligand binding domain (RORγt LBD) (P51449 other isoform, or with tags, fused parts or gaps): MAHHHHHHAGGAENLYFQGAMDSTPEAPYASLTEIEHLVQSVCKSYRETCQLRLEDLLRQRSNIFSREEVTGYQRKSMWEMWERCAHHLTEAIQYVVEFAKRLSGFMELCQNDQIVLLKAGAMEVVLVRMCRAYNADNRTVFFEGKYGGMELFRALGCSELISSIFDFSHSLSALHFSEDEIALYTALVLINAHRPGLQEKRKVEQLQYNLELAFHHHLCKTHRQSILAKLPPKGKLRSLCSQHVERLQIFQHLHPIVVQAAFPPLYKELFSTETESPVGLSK

On to `C[C@H]1CCCN1C(=O)c1nc(C(=O)N[C@H]2C[C@H](O)C2)sc1-c1cnc(NC(C)(C)C)cc1C(F)F` [Example 400, 5-(6-(tert-Butylamino)-4-(difluoromethyl)pyridin-3-yl)-N-((1R,3S)-3-hydroxycyclobutyl)-4-((S)-2-methylpyrrolidine-1-carbonyl)thiazole-2-carboxamide], for which, on full-length human RORγt, the inhibition – broadly, the relative decrease from the control value, in per cent – at 3 µM worked out at 84%. The IC50 (usually the concentration that gives 50% inhibition) at full-length human RORγt (setting [2]) was determined as 0.056 µM. For the same compound, the Kd (usually the free concentration of one partner at which half of the binding sites on the other are occupied at equilibrium, for simple one-to-one binding) in test [1] (setting [3]) turned out to be 0.013 µM.
As for `CC[C@H](Nc1cc(C(F)(F)F)c(-c2sc(C(=O)NCC(C)(C)O)nc2C(=O)N2C3CCC2CC3)cn1)C(F)(F)F` [Example 101, 4-((1s,4s)-7-Azabicyclo[2.2.1]heptane-7-carbonyl)-N-(2-hydroxy-2-methylpropyl)-5-(6-(((S)-1,1,1-trifluorobutan-2-yl)amino)-4-(trifluoromethyl)pyridin-3-yl)thiazole-2-carboxamide], at full-length human RORγt (Conditions B or C), the “RORγt (FL) Reporter Assay B or C, % inhibition (value marked *)” value (from here on “RORγt … % inhibition (value marked *)”) is 107* %. The compound also yielded an IC50 at full-length human RORγt (setting [4]) of 0.019 µM. In addition, the Kd in test [1] (setting [3]) turned out to be 0.0032 µM.
Take `C[C@H]1CCCN1C(=O)c1nc(C(=O)NCC(C)(C)O)sc1-c1cnc(NCC(C)(C)C)cc1C(F)F` [Example 113, (S)-5-(4-(Difluoromethyl)-6-(neopentylamino)pyridin-3-yl)-N-(2-hydroxy-2-methylpropyl)-4-(2-methylpyrrolidine-1-carbonyl)thiazole-2-carboxamide]: the “RORγt … % inhibition (value marked *)” value on full-length human RORγt (Conditions B or C) is 110* %. On full-length human RORγt (setting [5]), the IC50 is 0.063 µM. Also, the Kd in test [1] (setting [3]) stood at 0.006 µM.
For the compound `C[C@H]1CC(F)(F)CN1C(=O)c1nc(C(=O)NCC(C)(C)O)sc1-c1cnc(NCC2(C(F)(F)F)CCC2)cc1C(F)F` [Example 273, 4-[(2S)-4,4-Difluoro-2-methyl-pyrrolidine-1-carbonyl]-5-[4-(difluoromethyl)-6-[[1-(trifluoromethyl)cyclobutyl]methylamino]-3-pyridyl]-N-(2-hydroxy-2-methyl-propyl)thiazole-2-carboxamide], the inhibition at 3 µM on full-length human RORγt was determined as 102%. The IC50 on full-length human RORγt (setting [2]) amounted to 0.0052 µM. Besides, in test [1] (setting [3]), the Kd was determined as 0.00051 µM.
On to `C[C@H](Nc1cc(C(F)F)c(-c2sc(C(=O)NCC(C)(C)O)nc2C(=O)N2C3CCC2CC3)cn1)C(F)(F)F` [Example 136], for which, on full-length human RORγt (Conditions B or C), the “RORγt … % inhibition (value marked *)” value is recorded as 109* %. The IC50 at full-length human RORγt (setting [5]) was 0.79 µM. In addition, the Kd in test [1] (setting [3]) worked out at 0.016 µM.
On to `C[C@H](Nc1cc(C(F)F)c(-c2sc(C(=O)NCC(C)(C)O)nc2C(=O)N2CCC[C@@H]2C)cn1)C1CC1` [Example 43, 5-(6-(((S)-1-Cyclopropylethyl)amino)-4-(difluoromethyl)pyridin-3-yl)-N-(2-hydroxy-2-methylpropyl)-4-((S)-2-methylpyrrolidine-1-carbonyl)thiazole-2-carboxamide], for which, on full-length human RORγt (setting [5]), the IC50 came to 0.022 µM. Also, the inhibition at 6 µM at full-length human RORγt worked out at 107%. The Kd in test [1] (setting [3]) is 0.0049 µM.
On to `C[C@H](Nc1cc(C(F)(F)F)c(-c2sc(C(=O)N[C@@H]3COC[C@@H]3O)nc2C(=O)N2C3CCC2CC3)cn1)C(F)(F)F` (single isomer, unassigned) [Example 228, 4-((1s,4s)-7-Azabicyclo[2.2.1]heptane-7-carbonyl)-N-((3R*,4R*)-4-hydroxytetrahydrofuran-3-yl)-5-(4-(trifluoromethyl)-6-(((S)-1,1,1-trifluoropropan-2-yl)amino)pyridin-3-yl)thiazole-2-carboxamide], for which, at full-length human RORγt (Conditions B or C), the “RORγt (FL) Reporter Assay B or C, % inhibition (value marked ***)” value was 91*** %. This compound showed an IC50 against full-length human RORγt (setting [4]) of 0.095 µM. For the same compound, the Kd in test [1] (ThermoFluor® Assay, Kd (μM)) turned out to be 0.0023 µM.
Regarding `C[C@H]1CCN1C(=O)c1nc(C(=O)NCC(C)(C)O)sc1-c1cnc(NC2CCCCC2)cc1C(F)(F)F` [Example 25, (S)-5-(6-(Cyclohexylamino)-4-(trifluoromethyl)pyridin-3-yl)-N-(2-hydroxy-2-methylpropyl)-4-(2-methylazetidine-1-carbonyl)thiazole-2-carboxamide], at full-length human RORγt (setting [5]), the IC50 was 0.22 µM. The inhibition at 6 µM on full-length human RORγt worked out at 102%. In addition, the Kd in test [1] (setting [3]) was determined as 0.12 µM.
For `C[C@H]1CCCN1C(=O)c1nc(C(=O)NC2CN(C)C2)sc1-c1cnc(NC(C)(C)C)cc1C(F)(F)F` [Example 356, 5-[6-(tert-Butylamino)-4-(trifluoromethyl)-3-pyridyl]-N-(1-methylazetidin-3-yl)-4-[(2S)-2-methylpyrrolidine-1-carbonyl]thiazole-2-carboxamide], on full-length human RORγt, the inhibition at 3 µM is 94%. In addition, on full-length human RORγt (setting [2]), the IC50 was determined as 0.035 µM. The Kd in test [1] (setting [3]) came out at 0.047 µM.
In the same order, the values of `C[C@H]1CCCN1C(=O)c1nc(C(=O)N[C@H]2CCC[C@@H]2O)sc1-c1cnc(NC(C)(C)C)cc1C(F)F` [Example 396, 5-[6-(tert-Butylamino)-4-(difluoromethyl)-3-pyridyl]-N-[(1S,2S)-2-hydroxycyclopentyl]-4-[(2S)-2-methylpyrrolidine-1-carbonyl]thiazole-2-carboxamide] are 96%, 0.021 µM and 0.0011 µM.
As for `C[C@H]1CCCN1C(=O)c1nc(C(=O)NC2COC2)sc1-c1cnc(NC(C)(C)C)cc1C(F)(F)F` [Example 259, 5-[6-(tert-Butylamino)-4-(trifluoromethyl)-3-pyridyl]-4-[(2S)-2-methylpyrrolidine-1-carbonyl]-N-(oxetan-3-yl)thiazole-2-carboxamide], the inhibition at 3 µM at full-length human RORγt is 101%. Besides, the IC50 on full-length human RORγt (setting [2]) is 0.025 µM. Besides, the Kd in test [1] (setting [3]) came to 0.003 µM.
On to `C[C@H]1CC(F)(F)CN1C(=O)c1nc(C(=O)NCC(C)(C)O)sc1-c1cnc(NC(C)(C)C)cc1C(F)(F)F` [Example 83, (S)-5-(6-(tert-Butylamino)-4-(trifluoromethyl)pyridin-3-yl)-4-(4,4-difluoro-2-methylpyrrolidine-1-carbonyl)-N-(2-hydroxy-2-methylpropyl)thiazole-2-carboxamide], for which the “RORγt (FL) Reporter Assay B or C, % inhibition (value marked ***)” value on full-length human RORγt (Conditions B or C) was 110*** %. The IC50 at full-length human RORγt (setting [5]) amounted to 0.0069 µM. Besides, in test [1] (setting [3]), the Kd was 0.00055 µM.
As to `C[C@H]1CCCN1C(=O)c1nc(C(=O)N[C@H]2COC[C@@H]2O)sc1-c1cnc(NC(C)(C)C)cc1C(F)(F)F` [Example 348, 5-[6-(tert-Butylamino)-4-(trifluoromethyl)-3-pyridyl]-N-[(3S,4R)-4-hydroxytetrahydrofuran-3-yl]-4-[(2S)-2-methylpyrrolidine-1-carbonyl]thiazole-2-carboxamide], on full-length human RORγt, the inhibition at 3 µM is 105%. For the same compound, the IC50 on full-length human RORγt (setting [2]) is 0.0031 µM. The Kd in test [1] (setting [3]) stood at 0.0009 µM.
In the case of `C[C@H]1CC(F)(F)CN1C(=O)c1nc(C(=O)NCC(C)(C)O)sc1-c1cnc(NCC2(C)CC2)cc1C(F)(F)F` [Example 277, 4-[(2S)-4,4-Difluoro-2-methyl-pyrrolidine-1-carbonyl]-N-(2-hydroxy-2-methyl-propyl)-5-[6-[(1-methylcyclopropyl)methylamino]-4-(trifluoromethyl)-3-pyridyl]thiazole-2-carboxamide], the inhibition at 3 µM on full-length human RORγt was determined as 113%. Moreover, at full-length human RORγt (setting [2]), the IC50 worked out at 0.011 µM. In addition, in test [1] (setting [3]), the Kd turned out to be 0.0024 µM.
For `C[C@H](NC(=O)c1nc(C(=O)N2CC(F)(F)C[C@@H]2C)c(-c2cnc(NC3(C)CCC3)cc2C(F)(F)F)s1)C(C)(C)O` [Example 195, 4-((S)-4,4-Difluoro-2-methylpyrrolidine-1-carbonyl)-N—((S)-3-hydroxy-3-methylbutan-2-yl)-5-(6-((1-methylcyclobutyl)amino)-4-(trifluoromethyl)pyridine-3-yl)thiazole-2-carboxamide], the “RORγt … % inhibition (value marked *)” value on full-length human RORγt (Conditions B or C) is 85* %. On full-length human RORγt (setting [5]), the IC50 came out at 0.033 µM. The Kd in test [1] (setting [3]) stood at 0.00043 µM.

Values taken from patent publication US10975068B2, “6-aminopyridin-3-yl thiazoles as modulators of RORγT” (Janssen Pharmaceutica NV, priority 2016, dated 2021).
